Assay results as given in the NIST ThermoML archive (doi:10.1016/j.jct.2015.09.018).
± gives the expanded uncertainty stated by the source.

Details: 101.33 kPa, Crystal 3; for molar entropy: relaxation calorimeter

[O-2].[O-2].[Ti+4] [titanium(IV) oxide]
Details	molar entropy [J/K/mol]
0.5 K	0.000413 ± 3.9e-05
1 K	0.000882 ± 7.5e-05
1.5 K	0.00146 ± 0.00012
2 K	0.00221 ± 0.00018
2.5 K	0.00316 ± 0.00026
3 K	0.00439 ± 0.00036
3.5 K	0.00591 ± 0.00048
4 K	0.00779 ± 0.00063
4.5 K	0.01 ± 0.0008
5 K	0.0127 ± 0.001
5.5 K	0.0158 ± 0.0013
6 K	0.0194 ± 0.0016
6.5 K	0.0234 ± 0.0019
7 K	0.0279 ± 0.0022
7.5 K	0.0328 ± 0.0026
8 K	0.0383 ± 0.0031
8.5 K	0.0442 ± 0.0035
9 K	0.0506 ± 0.0041
9.5 K	0.0575 ± 0.0046
10 K	0.0649 ± 0.0052
11 K	0.081 ± 0.0065
12 K	0.0989 ± 0.0079
13 K	0.119 ± 0.01
14 K	0.141 ± 0.011
15 K	0.164 ± 0.013
16 K	0.19 ± 0.015
17 K	0.218 ± 0.017
18 K	0.248 ± 0.02
19 K	0.28 ± 0.022
20 K	0.314 ± 0.025
25 K	0.524 ± 0.042
30 K	0.798 ± 0.064
35 K	1.14 ± 0.09
40 K	1.55 ± 0.12
45 K	2.02 ± 0.16
50 K	2.55 ± 0.2
55 K	3.15 ± 0.25
60 K	3.8 ± 0.3
65 K	4.5 ± 0.36
70 K	5.25 ± 0.42
75 K	6.04 ± 0.48
80 K	6.87 ± 0.55
85 K	7.74 ± 0.62
90 K	8.65 ± 0.69
95 K	9.59 ± 0.77
100 K	10.56 ± 0.85
110 K	12.56 ± 1
120 K	14.64 ± 1.2
130 K	16.77 ± 1.3
140 K	18.94 ± 1.5
150 K	21.13 ± 1.7
160 K	23.34 ± 1.9
170 K	25.56 ± 2
180 K	27.77 ± 2.2
190 K	29.99 ± 2.4
200 K	32.19 ± 2.6
210 K	34.38 ± 2.8
220 K	36.55 ± 2.9
230 K	38.69 ± 3.1
240 K	40.82 ± 3.3
250 K	42.91 ± 3.4
260 K	44.98 ± 3.6
270 K	47.03 ± 3.8
273.15 K	47.66 ± 3.8
280 K	49.04 ± 3.9
290 K	51.02 ± 4.1
298.15 K	52.61 ± 4.2
300 K	52.97 ± 4.2
305 K	53.94 ± 4.3

Details	mass density [kg/m3]
298.15 K, X-ray diffraction	4130 ± 20
